Read-outs that look alike come from different tables or passages of the source. Where a SMILES comes first, the peptide text is derived from it. [ ]: non-standard residue; d: D form. The star is where a group is joined. Bip(2'-Et,4'-O(CH2)4NH2) = CCc1cc(OCCCCN)ccc1-c1ccc(C[C@H](N)C(=O)O)cc1; Malonyl(2,2-Me2,histaminyl) = CC(C)(C(=O)NCCc1cnc[nH]1)C(=O)*; Nva(5-(3,5-Me2Ph)) = Cc1cc(C)cc(CCC[C@H](N)C(=O)O)c1; Ala(1H-tetrazol-5-yl) = N[C@@H](Cc1nnn[nH]1)C(=O)O; αMePhe(2-F) = C[C@](N)(Cc1ccccc1F)C(=O)O; Desaminohistidyl = O=C(CCc1c[nH]cn1)*; X4 = CC(C)(C(=O)O)C(=O)*; Aib = CC(C)(N)C(=O)O; NHPh = c1ccc(N*)cc1
What was measured:
[1] = biological target: T1, human GLP1R (Homo sapiens, UniProt P43220); test: Luciferase reporter assay, HEK293/CRE-Luc/hGLP1R (Example 17); format: cell-based; set-up: engineered to express full-length human GLP1R, cynomolgus GLP1R; expressed in transfected cells; host or cells: HEK293/CRE-Luc; conditions: HEK293/CRE-Luc/hGLP1R; for S/N: highest RLU / RLU of untreated wells; for EC50: payloads and linker-payloads, experiments A-E, M2361 repeated in each, read-out: EC50; for Relative Potency (% M2361 EC50) / Relative Signal:Noise (% M2361): relative to M2361 of the same experiment
T1 sequence (P43220 24-463): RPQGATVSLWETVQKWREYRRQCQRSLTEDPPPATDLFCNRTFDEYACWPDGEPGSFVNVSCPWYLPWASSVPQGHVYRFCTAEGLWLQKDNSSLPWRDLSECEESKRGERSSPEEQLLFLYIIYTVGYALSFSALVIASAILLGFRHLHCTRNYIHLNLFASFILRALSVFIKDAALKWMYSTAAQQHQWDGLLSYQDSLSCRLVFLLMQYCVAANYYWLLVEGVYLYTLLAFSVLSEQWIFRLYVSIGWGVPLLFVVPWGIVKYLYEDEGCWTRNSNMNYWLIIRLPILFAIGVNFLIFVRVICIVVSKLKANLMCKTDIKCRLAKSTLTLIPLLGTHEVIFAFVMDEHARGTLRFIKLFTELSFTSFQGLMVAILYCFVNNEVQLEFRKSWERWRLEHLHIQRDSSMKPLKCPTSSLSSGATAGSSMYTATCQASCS
Procedure, shortened: (§1)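 HEK293 cells carrying a CRE-driven firefly luciferase reporter were exposed to 3-fold serial dilutions of payloads or linker-payloads (12 points, 0.2% DMSO final) for 4–6 h, then luminescence was read. EC50 came from a four-parameter logistic fit; S/N is top RLU over untreated wells, and relative potency and S/N are referenced to M2361.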

[2] = Plasma stability of payloads (t½)
[3] = Plasma stability of payloads and linker-payloads, human plasma; format: in vitro ADME; conditions: plasma, 2 μM, 37° C., read-out: Human plasma stability assay T½ (converted)
Procedure: The plasma stability of payloads and linker payloads of the disclosure were measured. For the assay, pooled frozen plasma (human, mouse or monkey) was thawed in cold water or a 37° C. water bath prior to experiment. Plasma was centrifuged at 4000 rpm for 5 min if any clots were observed, they were subsequently removed. If required, the pH was adjusted to 7.4±0.1. For the preparation of compounds and positive controls, a 1 mM intermediate solution was prepared by diluting 10 μL of their stock solution with 90 μL DMSO; a 1 mM intermediate solution of the positive control (Propantheline) was prepared by diluting 10 μL of its stock solution with 90 μL ultrapure water. […] 98 μL of plasma was spiked with 2 μL of dosing solution (100 μM) to achieve the final concentration of 2 μM in duplicate. Samples were then incubated at 37° C. in a water bath. […] At each time point, 400 μL of stop solution (200 ng/mL tolbutamide plus 200 ng/mL labetalol in 50% ACN/MeOH) was added to precipitate protein and mixed thoroughly. Sample plates were then centrifuged at 4,000 rpm for 10 min. An aliquot of supernatant (50 μL) was transferred from each well and mixed with 100 μL ultrapure water. The samples were then shaken at 800 rpm for approximately 10 min before submitting for LC-MS/MS analysis.

[4] = system: HEK293/CRE-Luc cells; test: Luciferase reporter assay, HEK293/CRE-Luc cells without hGLP1R (Example 11); format: cell-based, human; conditions: Table 11; Experiment A; no hGLP1R expression
Excerpt: (§2) To test the activity of GLP1R agonist payloads, GLP1R agonist linker-payloads (LPs), and anti-GLP1R antibody tethered drug conjugates (ATDCs) of the disclosure, a cell-based cAMP responsive luciferase reporter assay was developed. To generate the assay cell line, the firefly luciferase gene was placed under the control of a cAMP response element (CRE) located upstream of a minimal promoter and transfected into HEK293 cells and referred to herein as HEK293/CRE-Luc cells.
(§3) Three-fold serial dilutions of free payloads or LPs were prepared in 100% DMSO, transferred to fresh assay media, and added to the cells at a final constant DMSO concentration of 0.2%. The last well in the plate served as a blank control containing only the assay media and 0.2% DMSO (untreated well) and was plotted as a continuation of the 3-fold serial dilution. Four to six hours later, luciferase activity was determined after the addition of One-Glo™ reagent (Promega, Cat #E6130) to each well. Relative light units (RLUs) were measured on an Envision luminometer (PerkinElmer) and EC50 values were determined using a four-parameter logistic equation over a 12-point dose response curve (GraphPad Prism). The signal to noise (S/N) was determined by taking the ratio of the highest RLU on the dose response curve to the RLU in the untreated wells.

[5] = biological target: T1, human GLP1R; test: Human GLP1R cAMP accumulation assay; format: cell-based; set-up: HEK293 cells over-expressing full length human GLP-1R were utilized; expressed in transfected cells; host or cells: HEK293 (HEK293/hGLP1R); conditions: HEK293/hGLP1R cells; Table 4; read-out: cAMP EC50
Procedure, shortened: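 cAMP accumulation measured after 30 min at 23° C, with 500 μM IBMX in HEPES-buffered HBSS plus 0.1% BSA, in HEK293 cells expressing full-length hGLP-1R. Levels read by D2-cAMP/antibody immunoassay via standard curve, scaled between low and high controls. EC50 fitted four-parameter over a 10-point curve.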

[6] = biological target: T1, human GLP1R; test: Luciferase reporter assay, HEK293/CRE-Luc/hGLP1R cells (Example 11); format: cell-based; set-up: engineered to express full-length human GLP1R, cynomolgus GLP1R; expressed in transfected cells; host or cells: HEK293/CRE-Luc; conditions: Table 11; Experiment A
Excerpt: as §2, §3
GLP1R agonist linker payloads were conjugated to anti-hGLP1R antibodies via N-terminal heavy or light chain Q tags. Several resulting anti-GLP1R antibody tethered drug conjugates (ATDCs) were tested for activity in the HEK293/CRE-Luc/hGLP1R reporter assay as described above for the free GLP1R payload and linker-payload agonists.

[7] = system: HEK293/CRE-Luc cells; test: Luciferase reporter assay, HEK293/CRE-Luc cells without GLP1R (Example 17); format: cell-based, human; conditions: HEK293/CRE-Luc cells without hGLP1R, payloads and linker-payloads; for EC50: read-out: EC50
Procedure, shortened: as §1

[8] = pH 7.4, tested time B (2 hrs per footnote)
[9] = pH 7.4, tested time A (1 day per footnote)

Row | Compound | S/N [1] | EC50 [1] [nM] | Relative Potency (% M2361 EC50) [1] [%] | Relative Signal:Noise (% M2361) [1] [%] | Plasma stability t½ [2] [h] | half-life at 2 µM [3, 8] [h] | EC50 [4] [nM] | HEK293/CRE-LUC S/N [4] | EC50 [5] [nM] | half-life at 2 µM [3, 9] [h] | EC50 [6] [nM] | HEK293/CRE-LUC/hGLP1R Relative Potency (% P8 EC50) [6] [%] | HEK293/CRE-LUC/hGLP1R S/N [6] | S/N [7] | EC50 [7] [nM]
1 | CCc1cc(OCCCCN)ccc1-c1ccc(C[C@H](NC(=O)[C@H](CC(=O)O)NC(=O)[C@H](CO)NC(=O)[C@@H](NC(=O)[C@](C)(Cc2ccccc2F)NC(=O)[C@@H](NC(=O)CNC(=O)[C@@H](N)Cc2nn[nH]n2)[C@@H](C)O)[C@@H](C)O)C(=O)N[C@@H](CCCc2cc(C)cc(C)c2)C(N)=O)cc1 [P2] | 306.2 | 19 | 0.1 | 93.4 | 10.7 | 10.7 | – | – | – | – | – | – | – | – | –
2 | CCc1cc(OCCCCN)ccc1-c1ccc(C[C@H](NC(=O)[C@H](CC(=O)O)NC(=O)[C@H](CO)NC(=O)[C@@H](NC(=O)[C@](C)(Cc2ccccc2F)NC(=O)[C@@H](NC(=O)CNC(=O)[C@H](Cc2nn[nH]n2)NC(=O)C(C)(C)C(=O)O)[C@@H](C)O)[C@@H](C)O)C(=O)N[C@@H](CCCc2cc(C)cc(C)c2)C(N)=O)cc1 [P3] (X4-[Ala(1H-tetrazol-5-yl)]GT[αMePhe(2-F)]TSD[Bip(2'-Et,4'-O(CH2)4NH2)][Nva(5-(3,5-Me2Ph))]-NH2) | 46.3 | 1.95 | 0.3 | 70.3 | >57.8 | – | > 200 | 1.2 | 1.43 | > 57.8 | 1.95 | 0.3 | 46.3 | 1.2 | > 200
3 | CCc1cc(OCCCCN)ccc1-c1ccc(C[C@H](NC(=O)[C@H](CC(=O)O)NC(=O)[C@H](CO)NC(=O)[C@@H](NC(=O)[C@](C)(Cc2ccccc2F)NC(=O)[C@@H](NC(=O)CNC(=O)[C@H](Cc2nn[nH]n2)NC(=O)[C@H](C)NC(=O)[C@@H](N)Cc2cnc[nH]2)[C@@H](C)O)[C@@H](C)O)C(=O)N[C@@H](CCCc2cc(C)cc(C)c2)C(N)=O)cc1 [P10] (H-HA[Ala(1H-tetrazol-5-yl)]GT[αMePhe(2-F)]TSD[Bip(2'-Et,4'-O(CH2)4NH2)][Nva(5-(3,5-Me2Ph))]-NH2) | 45.1 | 0.014 | 38.0 | 68.6 | – | 1.83 | > 200 | 1.2 | 0.047 | – | 0.014 | 38.0 | 45.1 | 1.2 | > 200
4 | CCc1cc(OCCCCN)ccc1-c1ccc(C[C@H](NC(=O)[C@H](CC(=O)O)NC(=O)[C@H](CO)NC(=O)[C@@H](NC(=O)[C@](C)(Cc2ccccc2F)NC(=O)[C@@H](NC(=O)CNC(=O)[C@H](Cc2nn[nH]n2)NC(=O)CNC(=O)CCc2c[nH]cn2)[C@@H](C)O)[C@@H](C)O)C(=O)N[C@@H](CCCc2cc(C)cc(C)c2)C(N)=O)cc1 [P12] (Desaminohistidyl-G[Ala(1H-tetrazol-5-yl)]GT[αMePhe(2-F)]TSD[Bip(2'-Et,4'-O(CH2)4NH2)][Nva(5-(3,5-Me2Ph))]-NH2) | – | 0.0114 | – | – | >57.8 | – | – | – | 0.039 | > 57.8 | 0.0114 | – | – | – | –
5 | CCc1cc(OCCCCN)ccc1-c1ccc(C[C@H](NC(=O)[C@H](CC(=O)O)NC(=O)[C@H](CO)NC(=O)[C@@H](NC(=O)[C@](C)(Cc2ccccc2F)NC(=O)[C@@H](NC(=O)CNC(=O)[C@H](Cc2nn[nH]n2)NC(=O)C(C)(C)NC(=O)[C@@H](N)Cc2ccc(O)cc2)[C@@H](C)O)[C@@H](C)O)C(=O)N[C@@H](CCCc2cc(C)cc(C)c2)C(N)=O)cc1 [P19] (H-Y[Aib][Ala(1H-tetrazol-5-yl)]GT[αMePhe(2-F)]TSD[Bip(2'-Et,4'-O(CH2)4NH2)][Nva(5-(3,5-Me2Ph))]-NH2) | 78.5 | 0.0535 | 9.9 | 119.4 | >57.8 | – | – | – | 0.156 | > 57.8 | – | – | – | 1.0 | > 200
6 | CCc1cc(OCCCCN)ccc1-c1ccc(C[C@H](NC(=O)[C@H](CC(=O)O)NC(=O)[C@H](CO)NC(=O)[C@@H](NC(=O)[C@](C)(Cc2ccccc2F)NC(=O)[C@@H](NC(=O)CNC(=O)[C@H](Cc2nn[nH]n2)NC(=O)C(C)(C)C(=O)NCCc2cnc[nH]2)[C@@H](C)O)[C@@H](C)O)C(=O)N[C@@H](CCCc2cc(C)cc(C)c2)C(=O)Nc2ccccc2)cc1 [P23] ({Malonyl(2,2-Me2,histaminyl)}-[Ala(1H-tetrazol-5-yl)]GT[αMePhe(2-F)]TSD[Bip(2'-Et,4'-O(CH2)4NH2)][Nva(5-(3,5-Me2Ph))]-NHPh) | 57.1 | 0.00515 | 103.0 | 86.9 | – | 10.7 | > 200 | 1.6 | 0.198 | – | 0.00515 | 103.0 | 57.1 | 1.6 | > 200
